Experimental data reported in ChEMBL document CHEMBL5537138, “Identification of a novel potent CDK inhibitor degrading cyclinK with a superb activity to reverse trastuzumab-resistance in HER2-positive breast cancer in vivo” (Eur J Med Chem, 2024).

Experiment: in vitro
Conditions: PAMPA
Description: Permeability of compound at 12.5 uM incubated for 4 hrs by GIT PAMPA assay

SMILES: CCn1cnc2c(NCc3ccc(-c4ccoc4)nc3)nc(-c3cccnc3)nc21
- Papp at 4 h, 12.5 µM: 72.4 ×10⁻⁶ cm/s
